Experimental data as given in patent US20140186263A1, “MALEIMIDE-FUNC[…] NANOPARTICLES” (THE ROYAL INSTITUTION FOR THE ADVANCEMENT OF …, priority 2011, published 2014).

Test system: blood brain barrier (BBB); brain, cerebellum
Assay: Biodistribution of [18F]-AuNP in rats by small animal micro-PET
Type: in vivo, SD (Sprague-Dawley) rats
Settings: healthy rats, intravenous injection, micro-PET brain scan
Description: To evaluate the bio-distribution of the AuNPs, [^18F] SiFA-AuNP (12 MBq) were injected into healthy rats (n=3) and evaluated by micro-PET. Representative body and brain scan images of a micro-PET scan following intravenous injection of a solution of [^18F]-SiFA-AuNP are illustrated in FIG. 8. Radioactivity was found in the kidney, liver and spleen.
The time-activity curves obtained from the PET images depicting the radioactivity uptake in the cerebellum and the brain (n=3), using bone radioactivity as a region of reference, are illustrated in FIG. 9 These curves illustrate that AuNPs start to accumulate in the cerebellum and brain at 25-120 min. Ex vivo biodistribution studies were also carried out to confirm the bio-distribution data of [^18F]-SiFA-AuNP in different organs 2 h following injection as obtained by micro-PET. The biodistribution data is illustrated in FIG. 10 and is expressed as the percentage of injected dose for each gram of tissue (% ID/g). […]
Biodistribution of [^18F]-AuNP in Rats by small animal PET: SD (Sprague-Dawley) Rats for in vivo PET studies were housed in a 12 h light/dark cycle at 21° C. with access to food and water ad libitum. […] Respiration rate, heart rate and body temperature were monitored throughout the scan (Biopac sytems MP150, Goleta, Calif., USA). […] The PET images were analyzed using ASIPRO software (Concorde Microsystems). […]

CC(C)(C)[Si](F)(c1ccc(S)cc1)C(C)(C)C [[^18F]-SiFA-SH, ^18F-labeled 4-(di-tert-butylfluorosilanyl)benzenethiol]
crossing of the blood brain barrier (BBB): does not cross the BBB
